Source: patent US20130059324A1, “SYSTEMS AND METHODS FOR MECHANICALLY STRAINED CELL CULTURE” (THE UNIVERSITY OF KANSAS, priority 2010, published 2013)

Key:
A549 cells [1] = system: A549 cells
Protocol: (§2) After allowing the cells to adhere to the flexible membrane of the 96 well plate for 24 hours, the loading pins and the system described in FIG. 7 to implement mechanical strain were used to deliver 20% maximum strain for 2 seconds to the plate assigned for mechanical forces (+M Group), followed by 2 seconds of rest (15 cycles per minute with an average strain of 10% per cycle) in keeping with a normal human respiration.
(§3) In a parallel experiments, the cells were treated with anti-tumor drug after 72 hours of initial seeding (after 48 hours of mechanical stretching). The drug was dissolved in dimethyl sulfoxide (DMSO) at stock concentration and added to the respective media. […] The IC90 concentrations of the drugs were then added to prototype plate.
(§4) The +M Group was subjected to continuous mechanical stretching while the −M Group plate was placed in the same incubator for additional 24 hours.
(§5) In order to quantify viability, 6 wells per treatment group for ViCell counter and 6 wells per condition for MTS were assigned to determine the cell viability. Using Vi-Cell counter, assigned wells were filled with extra 210 μl of media to keep the volume constant in all the wells. Media from the assigned wells were transferred into a 24-well plate, and the well location was recorded. About 50 μl of trypLE was added to each well and allowed to trypsinize for a maximum of ten minutes. A small amount of media from the 24-well plate was transferred back into corresponding wells of the prototype plate to collect detached cells.
(§6) Media and cells were transferred back into the corresponding well of the 24-well plate. All wells were brought to a final volume of 1.25 mL with PBS and mixed well. About 1 ml of this cell suspension was transferred to ViCell counter to determine the number of viable cells.

A549 cells [2] = assay: Drug exposure with or without simulated forces, 6-well Bioflex plates, live cell count and exponential growth model; assay type: cell-based, human
Protocol: Treatments 1, 2 and 3 served as unstretched controls for Treatments 4, 5 and 6, respectively. For each cell line and drug, all treatments were independently repeated at least 3 times on different days, with 3 replicates per Treatments 1 and 4 (n=9) and 5 replicates per all other treatments (n=15).
Cells were passaged in 75 cm2 culture flasks at 37° C. in 5% CO2, and trypsinized using TryplE™ Express (Gibco) containing phenol red.
Cells were plated in 6-well Bioflex® plates (Flexcell® International Corporation, Hillsborough, N.C.). Each well of the plate has a flexible elastic membrane coated with a thin layer of type I collagen. Type I collagen was chosen since it more accurately represents the physiology of lung tumor cells in vivo. […] In Treatments 1, 2 and 3, NCI-H358 and A549 cells were plated at a density of 100,000 and 20,000 cells/well in 2 ml of corresponding media, respectively. For treatments involving simulated forces (Treatments 4-6), NCI-H358 and A549 cells were plated at a density of 170,000 and 35,000 cells/well, respectively.
After allowing the cells to adhere to the membrane for 24 hours, the plates assigned for simulated forces were stretched using the FX-4000 Tension plus unit (Flexcell® International Corporation, Hillsborough, N.C.). The Flexcell unit was configured to deliver an alternating positive and negative pressure beneath the cell culture surfaces. Negative pressure pulls the culture surface down over a stationary Delrin post on the baseplate, delivering a uniform biaxial strain to the cells, and subsequent application of positive pressure releases this distension (FIGS. 9A and 9B.) In this manner, the alternating positive and negative pressure simulates forces experienced during respiration. Culture plates experiencing forces were fitted with rubber gaskets and placed on circular loading stations in the baseplate.
After 72 hours of initial seeding, one of the five drugs was added to Treatments 3 and 6 of each cell line. […] To insure comparability, an aliquot of 1 ml of media without the drug was added to each well in Treatments 2 and 5. After adding the drug or 1 ml of media, the plates from Treatments 5 and 6 were placed back on the baseplate and subjected to the same force profile as before for the remaining 72 hours. Plates from Treatments 2 and 3 (without forces) were placed in the same incubator for the remaining 72 hours.
Cells were trypsinized and counted at the end of day 3 in Treatments 1 and 4, and at the end of day 6 in the other treatments, using a Beckman Coulter Vi-Cell Analyzer (Beckman Coulter, Fullerton, Calif.). To examine changes in morphology, microphotographs of A549 and NCI-H358 cells were taken at the end of Treatments 1, 2, 4 and 5 using an Olympus inverted microscope and a 10× objective.
The standard exponential cell growth model (28) was used to describe the changes in live cell counts after each treatment. According to this model, the cell count (e.g., N) at a particular time (e.g., t), is given by the equation:
N* is the initial cell count and λ is the cell growth rate. For each cell line, the following cell growth rates were estimated: λ=growth rate in the absence of forces and drugs, λd=growth rate in the presence of a particular drug but no forces, λXf=growth rate in the presence of forces but no drugs; and λfd=growth rate in the presence of forces and a particular drug. The growth rates λd and λfd were estimated for each tested drug. Using these growth rates and the exponential growth model, the final cell counts were mathematically modeled for each treatment under various conditions (FIG. 8). For each cell line, a linear regression model that combined the information from the 5 investigated drugs was built using Stata Statistical Software (StataCorp LP, Texas) after log-transforming the six equations listed in FIG. 8. The regression coefficients in the model were the growth rates.

A549 cells [3] = assay: Prototype 96-well plate, viable cell count (Vi-Cell) with and without mechanical forces; conditions: drug at IC90, 24 hours
Protocol: as §2, §3, §4, §5, §6

H358 cells = assay: Prototype 96-well plate, MTS assay with and without mechanical forces; assay type: cell-based, human; conditions: drug at IC90, 24 hours, 490 nm
Protocol: (§1) The prototype plate was read using the Biotek plate reader at the wavelength of 490 nm until the media only wells absorbance reached 1.0. For the +M group plate, 30 ul of MTS was added to the assigned wells and kept in the incubator for the same amount of time that required for the −M group to develop and read at the same wavelength.

A549 cells [4] = assay: as above; assay type: cell-based, human; conditions: A549, drug at IC90, 24 hours, 490 nm
Protocol: as §1

CC(=O)O[C@H]1C(=O)[C@@]2(C)[C@H]([C@H](OC(=O)c3ccccc3)[C@]3(O)C[C@H](OC(=O)[C@H](O)[C@@H](NC(=O)c4ccccc4)c4ccccc4)C(C)=C1C3(C)C)[C@]1(OC(C)=O)CO[C@@H]1C[C@@H]2O [Paclitaxel]
Effect of mechanical forces on viable cell count / cytotoxicity (A549 cells [1]): Statistically significant reduction
Growth Rates, With forces (A549 cells [2]; drug at IC90 for 3 days, 20% maximum strain, 15 cycles/minute): −0.038 per day
Growth Rates, Without forces (A549 cells [2]; drug at IC90 for 3 days, no forces, negative = reduction in viable cell count): 0.133 per day
Effectiveness of The Drug, Without forces (E) (A549 cells [2]; percentage reduction in live cell counts, 3-day drug exposure at IC90, no forces): 76.9%
Effectiveness of The Drug, With forces (Ef) (A549 cells [2]; percentage reduction in live cell counts, 3-day drug exposure at IC90, simulated forces): 57.5%
Viable Cell Count after 24 hours of drug exposure, With forces (Ef) (A549 cells [3]; mechanical forces): 11875.0
Viable Cell Count after 24 hours of drug exposure, Without forces (E) (A549 cells [3]; no forces): 33125.0
MTS absorbance after 24 hours of drug exposure, With forces (Ef) (H358 cells; mechanical forces): 0.345
MTS absorbance after 24 hours of drug exposure, Without forces (E) (H358 cells; no forces): 0.522
MTS absorbance after 24 hours of drug exposure, With forces (Ef) (A549 cells [4]; mechanical forces): 0.293
MTS absorbance after 24 hours of drug exposure, Without forces (E) (A549 cells [4]; no forces): 0.567
